Source: publication PMC3600304, “Inhibitors of Fatty Acid Synthesis Induce PPARα-Regulated Fatty Acid β-Oxidative Genes: Synergistic Roles of L-FABP and Glucose” (PPAR Research, 2013)

Columns and labels:
[1] = biological target: T1, recombinant rat L-FABP (Rattus norvegicus, UniProt P02692); assay: L-FABP secondary structure by circular dichroism (CD); settings: L-FABP 1 μM, ligand 10 μM
T1 construct: made in house
T1 sequence (P02692 1-127): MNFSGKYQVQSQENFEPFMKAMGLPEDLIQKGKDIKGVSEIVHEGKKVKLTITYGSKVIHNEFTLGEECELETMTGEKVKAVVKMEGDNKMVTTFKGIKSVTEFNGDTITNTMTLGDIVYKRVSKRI
Procedure: Circular dichroism (CD) spectra were obtained utilizing a JASCO J-815 CD spectrometer (JASCO Analytical Instruments, Easton, MD, USA). Each sample for CD analysis contained recombinant rat L-FABP (1 μM) in 10 mM potassium phosphate (pH 7.4) with or without ligand (10 μM). Samples were scanned from 190 to 250 nm using the following conditions: step resolution, 1 nm; bandwidth, 2 nm; sensitivity, 10 mdeg; scan rate, 50 nm/min; and time constant, 1 s. For each measurement, 10 scans were averaged, background-subtracted, smoothed using the Means-Movement smoothing method (convolution width, 5) and converted to mean residue molar ellipticity utilizing the Spectra Manager Version 2 software as supplied by the instrument manufacturer (Spectra Analysis Version 2.03.04, Build 5). The percentage composition of α-helices (regular, distorted, total), β-sheets (regular, distorted, total), turns, and unordered structures was determined utilizing the CDPro program as supplied by the instrument manufacturer using the SDP48 reference set (soluble + denatured protein). This program allows the percentage calculation of various secondary structures by three different methods: CDSSTR, CONTIN, and SELCON3. Statistical analysis was performed by one-way analysis of variance (ANOVA) combined with the Newman-Keuls multiple-comparisons posttest (GraphPad Prism Version 3.03, San Diego, CA, USA).

[2] = tested on: PPARα transcription of CPT1A, CPT2, ACOX1; assay: rtPCR of CPT1A, CPT2, ACOX1 mRNA in wild-type mouse primary hepatocytes; type: cell-based; settings: inhibitor 10 μg/mL, 5 hr
Procedure: (§1) Mouse hepatocytes were isolated from livers of male wild-type and L-FABP null mice as described. To study the effect of TOFA and C75 at different glucose levels, mouse hepatocytes were cultured overnight with DMEM/F-12 supplemented with 5% FBS. Cells were incubated with glucose-free DMEM supplemented with fatty acid-free BSA (40 μM), 100 nM insulin, 10 nM dexamethasone, and without (no inhibitor) or with the de novo fatty acid synthesis inhibitors C75 or TOFA (10 μg/mL) for 30 min (1 mL/well). Cells were incubated further for 5 hr with 6 or 20 mM glucose without or with the inhibitors.
(§2) Transcription of key enzymes in mitochondrial (CPT1A and CPT2) and peroxisomal (ACOX1) β-oxidation of long chain fatty acid (LCFA) was determined by rtPCR similarly as described. Briefly, the RNeasy mini kit from Qiagen Sciences (MD, USA) was used as per the manufacturer's instructions to isolate total RNA, which was then quantified spectrophotometrically. Quantitative real-time PCR was performed with an ABI PRISM 7000 Sequence Detection System (SDS) from Applied Biosystems (Foster City, CA, USA) to determine relative mRNA expression for CPT1A, CPT2, and ACOX1. The thermal protocol was as follows: 48°C for 30 min, 95°C for 10 min before the first cycle, 95°C for 15 sec, and 60°C for 60 sec, repeated 40 times. TaqMan One-Step Master Mix and Gene Expression Assays for mouse CPT1A (Mm 00550438_m1), CPT2 (Mm 00487202_m1), and ACOX1 (Mm 00443579_m1) were purchased from Applied Biosystems (Life Technologies, Carlsbad, CA, USA). Triplicates of each sample were analyzed with ABI PRISM 7000 SDS software (Applied Biosystems) to determine ΔCt relative to a positive control (18S housekeeping gene). The fold change in the abundance of CPT1A, CPT2, and ACOX1 mRNAs was determined in primary mouse hepatocytes treated with albumin (40 μM) in the absence and presence of lipid synthesis inhibitors (C75, TOFA, 10 μg/mL) in glucose-free DMEM medium supplemented with 100 nM insulin, 10 nM dexamethasone, and either 6 or 20 mM glucose. The comparative 2^−ΔΔCt calculation method was used as described in User Bulletin 2, ABI Prism 7000 SDS (Applied Biosystems), and earlier. Finally, protein levels of liver fatty acid binding protein (L-FABP), sterol carrier protein-2 (SCP-2), acyl CoA binding protein (ACBP), peroxisome proliferator activated receptor (PPARα), liver X receptor-α (LXRα), carbohydrate response element binding protein (ChREBP), and sterol response element binding protein (SREBP) were determined by western blotting as described.

[3] = tested on: PPARα transcription of CPT1A, CPT2, ACOX1; assay: rtPCR of CPT1A, CPT2, ACOX1 mRNA in L-FABP (−/−) null mouse primary hepatocytes; type: cell-based; settings: for PPARα transcription of CPT1A, CPT2, ACOX1 (mRNA): 6 mM glucose; for PPARα transcription of CPT1A, CPT2, ACOX1 (mRNA) / Ability to activate PPARα transcription of CPT1A, CPT2, ACOX1 (mRNA): inhibitor 10 μg/mL, 5 hr
Description: Wild-type mice on a C57BL/6N background purchased from Charles River Laboratories (Wilmington, MA, USA) were obtained from the National Cancer Institute (Frederick Cancer Research and Development Center, Frederick, MD, USA). L-FABP (−/−) null mice were obtained by targeted disruption of the L-FABP gene and backcrossed to C57Bl/6N background to the N10 (99.9% homogeneity) generation. For hepatocyte isolation, livers were collected from male mice aged 3–6 mo. Mouse protocols were approved by the Institutional Animal Care and Use Committee (IACUC) at Texas A&M University. Mice were kept under a constant 12/12 light-dark cycle and had access to food and water ad libitum.
as §1, §2

[4] = tested on: mouse primary hepatocytes; assay: Hepatocyte cytosolic glucose level; type: cell-based; settings: for Cytosolic glucose / Fold increase of cytosolic glucose versus no inhibitor: inhibitor 10 μg/mL; for Fold increase of cytosolic glucose by inhibitor: high extracellular glucose (20 mM); for Fold increase of cytosolic glucose with increasing glucose from 6 to 20 mM: in the presence of inhibitor 10 μg/mL
Procedure: as §1
Hepatocytes were plated 2 × 10^5 per well in 12-well tissue culture plates (Becton Dickinson and Company, Franklin Lakes, NJ, USA). After incubation with culture medium containing TOFA or C75 with increasing glucose level as described previously, hepatocytes were washed quickly with a cold solution of MgCl2 (100 mM) with 0.1 mM phloretin [46]. Cells were scraped from the dishes with PBS plus protease inhibitor, and cells were broken open with a probe sonicator (Sonic Dismembrator 550, Fisher Scientific, Waltham, MA, USA). Samples were sedimented at 10,000 g, 4°C for 20 min. The supernatant was used for glucose analysis with the Amplite Glucose Quantitation Kit (AAT Bioquest, Inc. Sunnyvale, CA, USA) as instructed by the manufacturer. The number of cultured primary hepatocytes in each sample was calculated based on amount of protein (Bradford Assay, Sigma, St. Louis, MO, USA) compared with reference samples with a known number of hepatocytes. Cytosolic glucose concentration was calculated using 7.4 × 10^−12 liter/cell as volume of the hepatocytes.

[5] = tested on: CPT1A; parameters: method as in PMID 39932, PMID 4051503, PMID 12060712, PMID 502765; settings: rat hepatocytes, media with high glucose (11 mM); cited from earlier work

Q: What does the source list for `C=C1C(=O)OC(CCCCCCCC)C1C(=O)O` (stereo not drawn) [C75, 4-methylene-2-octyl-5-oxotetrahydrofuran-3-carboxylic acid]?
A: Effect on L-FABP secondary structure (overall) [1]: did not alter; PPARα transcription of CPT1A, CPT2, ACOX1 (mRNA) ([2]; 6 mM glucose): neither TOFA nor C75 significantly altered; PPARα transcription of CPT1A, CPT2, ACOX1 (mRNA) ([2]; 20 mM glucose): induced; PPARα transcription of CPT1A, CPT2, ACOX1 (mRNA) [3]: lack of effect; Ability to activate PPARα transcription of CPT1A, CPT2, ACOX1 (mRNA) ([3]; 20 mM glucose): abolished; Cytosolic glucose ([4]; 6 mM glucose in medium): 4 mM; Fold increase of cytosolic glucose versus no inhibitor ([4]; 6 mM glucose in medium): ~ 2 fold; Cytosolic glucose ([4]; 20 mM glucose in medium): 13 mM; Fold increase of cytosolic glucose by inhibitor [4]: ~2 fold; Fold increase of cytosolic glucose with increasing glucose from 6 to 20 mM [4]: ~4 fold; CPT1A activity and fatty acid oxidation [5]: increased

Q: With `CCCCCCCCCCCCCCOc1ccc(C(=O)O)o1` [TOFA, 5-tetradecyloxy-2-furancarboxylic acid] as the compound, how does the “Effect on L-FABP secondary structure (overall)” value [1] read?
A: Its value is “significantly altered”.

Q: What about the “Effect on proportion of all types of β-sheet of L-FABP” value [1] of the same compound?
A: The value was “increased”.

Q: And the “Effect on proportion of α-helix of L-FABP” value [1]?
A: The value was “did not alter”.

Q: And the “Effect on turn structure of L-FABP” value [1]?
A: The value was “decreased”.

Q: What about the “Effect on unordered structure of L-FABP” value [1] of the same compound?
A: Its value is “did not alter”.

Q: And the “PPARα transcription of CPT1A, CPT2, ACOX1 (mRNA)” value ([2]; 6 mM glucose)?
A: The value was “neither TOFA nor C75 significantly altered”.

Q: What about the “PPARα transcription of CPT1A, CPT2, ACOX1 (mRNA)” value ([2]; 20 mM glucose) of the same compound?
A: Its value is “induced”.

Q: What about the “PPARα transcription of CPT1A, CPT2, ACOX1 (mRNA)” value [3] of the same compound?
A: The value was “lack of effect”.

Q: And the “Decrease of PPARα transcription of CPT1A, CPT2, or ACOX1” value ([3]; 20 mM glucose, TOFA 10 μg/mL)?
A: The value was roughly 50%.

Q: And the “Ability to activate PPARα transcription of CPT1A, CPT2, ACOX1 (mRNA)” value ([3]; 20 mM glucose)?
A: The value was “abolished”.

Q: What about the Cytosolic glucose ([4]; 6 mM glucose in medium) of the same compound?
A: Its Cytosolic glucose is 4 mM.

Q: What about the “Fold increase of cytosolic glucose versus no inhibitor” value ([4]; 6 mM glucose in medium) of the same compound?
A: The value was ~ 2 fold.

Q: What about the Cytosolic glucose ([4]; 20 mM glucose in medium) of the same compound?
A: The Cytosolic glucose was 20 mM.

Q: What about the “Fold increase of cytosolic glucose by inhibitor” value [4] of the same compound?
A: The value was roughly 2 fold.

Q: And the “Fold increase of cytosolic glucose with increasing glucose from 6 to 20 mM” value [4]?
A: Its value is roughly 5 fold.

Q: And the “CPT1A activity and fatty acid oxidation” value [5]?
A: Its value is “increased”.
